Measured values reported in patent US20250276964A1 (Novartis AG, priority 2021, published 2025).

Molecular target: T1, WIZ (Homo sapiens, UniProt O95785+Q96SW2)
T1 construct: expressed in transfected cells
Test: Quantification of WIZ protein levels in HiBit tag fusion protein assay (WIZ HiBit assay in 293T cells)
Type: cell-based
Conditions: for Dmax at 25 µM / remaining activity at 25 µM: HEK-293T; for Dmax at 25 µM: read-out: % degradation of WIZ (100-Amax); for remaining activity at 25 µM: read-out: WIZ Amax; for DC50: WIZ HiBit assay in 293T cells, 10-point, 5-fold dilution, highest concentration 25 μM, about 18 hours, read-out: WIZ AC50
Experimental: The HiBit system from Promega was used to develop high-throughput and quantitative assays to measure changes in WIZ protein levels in response to compounds. The HiBit tag was derived from a split Nanoluciferase and has the following protein sequence: […] (SEQ ID NO: 1). The complementary fragment of Nanoluciferase (known as LgBit, from Promega), was added to the HiBit tag to form an active Nanoluciferase enzyme whose activity can be precisely measured. In this way, the levels of a fusion protein with the HiBit tag can be quantified in cell lysates.
Lentiviral vectors, based on the Invitrogen™ pLenti6.2/V5 DEST backbone were constructed that places the HiBit tag upstream of WIZ and expressed the fusion protein from an HSVTK promotor.
To ensure moderate and consistent expression of the HiBit-WIZ fusion protein across all cells in the population, stable cell lines were constructed from cells harboring a single copy of the construct. Lentivirus packaged with the constructs were made using the ViraPower™kit from Invitrogen™. 293T cells from ATCC (Catalog number: CRL-3216), were infected with the virus at low multiplicity of infection and selected by 5 μg/mL blasticidin in culture media for 2 weeks.
The levels of HiBit-WIZ tagged fusion proteins in compound-treated cell lines were measured as follows:
On day 1, cells were diluted to 1.0×10^6 cells/ml in normal growth medium. 20 μL of cell suspension were plated in each well of a solid white 384-well plate. Plates were incubated overnight in a 37° C. and 5% CO2 humidified tissue culture incubator.
On day 2, serial dilutions of compounds were made in 384-well plates. Compound plates were set up with DMSO in columns 1, 2, 23, 24, and 10-point compound dilution series in column 3-12 and column 13-22. 10 mM stock solution of compound were placed into column 3 or 13 and a 1:5 serial dilution was carried out until there was a 10-point dilution series per compound. 50 nL of diluted compounds were transferred into the plated cells by Echo® (Labcyte) acoustic transfer. The highest concentration of compound was 25 μM. Plates were incubated overnight (about 18 hours) in a 37° C. and 5% CO2 humidified tissue culture incubator.
On day 3, plates were removed from the incubator and allowed to equilibrate at room temperature for 60 minutes. HiBit substrate (Nano-Glo® HiBit Lytic Detection System, Promega Catalogue number: N3050) was added as described by the manufacturers protocols. Plates were incubated at room temperature for 30 minutes and luminescence was read using an EnVision® reader (PerkinElmer®). Data was analyzed and visualized using the Spotfire® software package.
WIZ Amax reflects the DMSO-normalized, curve-fitted percentage of WIZ-HiBit remaining at 25 uM. It was calculated by normalizing DMSO controls to 100%, parametric curve fitting of the dose response data (10-point, 5-fold), followed by calculation of response at 25 uM using the fitted equation (nd=not determined).

[1] = DMSO-normalized, curve-fitted percentage of WIZ-HiBit remaining at 25 uM

T1 sequence (O95785 whole entry): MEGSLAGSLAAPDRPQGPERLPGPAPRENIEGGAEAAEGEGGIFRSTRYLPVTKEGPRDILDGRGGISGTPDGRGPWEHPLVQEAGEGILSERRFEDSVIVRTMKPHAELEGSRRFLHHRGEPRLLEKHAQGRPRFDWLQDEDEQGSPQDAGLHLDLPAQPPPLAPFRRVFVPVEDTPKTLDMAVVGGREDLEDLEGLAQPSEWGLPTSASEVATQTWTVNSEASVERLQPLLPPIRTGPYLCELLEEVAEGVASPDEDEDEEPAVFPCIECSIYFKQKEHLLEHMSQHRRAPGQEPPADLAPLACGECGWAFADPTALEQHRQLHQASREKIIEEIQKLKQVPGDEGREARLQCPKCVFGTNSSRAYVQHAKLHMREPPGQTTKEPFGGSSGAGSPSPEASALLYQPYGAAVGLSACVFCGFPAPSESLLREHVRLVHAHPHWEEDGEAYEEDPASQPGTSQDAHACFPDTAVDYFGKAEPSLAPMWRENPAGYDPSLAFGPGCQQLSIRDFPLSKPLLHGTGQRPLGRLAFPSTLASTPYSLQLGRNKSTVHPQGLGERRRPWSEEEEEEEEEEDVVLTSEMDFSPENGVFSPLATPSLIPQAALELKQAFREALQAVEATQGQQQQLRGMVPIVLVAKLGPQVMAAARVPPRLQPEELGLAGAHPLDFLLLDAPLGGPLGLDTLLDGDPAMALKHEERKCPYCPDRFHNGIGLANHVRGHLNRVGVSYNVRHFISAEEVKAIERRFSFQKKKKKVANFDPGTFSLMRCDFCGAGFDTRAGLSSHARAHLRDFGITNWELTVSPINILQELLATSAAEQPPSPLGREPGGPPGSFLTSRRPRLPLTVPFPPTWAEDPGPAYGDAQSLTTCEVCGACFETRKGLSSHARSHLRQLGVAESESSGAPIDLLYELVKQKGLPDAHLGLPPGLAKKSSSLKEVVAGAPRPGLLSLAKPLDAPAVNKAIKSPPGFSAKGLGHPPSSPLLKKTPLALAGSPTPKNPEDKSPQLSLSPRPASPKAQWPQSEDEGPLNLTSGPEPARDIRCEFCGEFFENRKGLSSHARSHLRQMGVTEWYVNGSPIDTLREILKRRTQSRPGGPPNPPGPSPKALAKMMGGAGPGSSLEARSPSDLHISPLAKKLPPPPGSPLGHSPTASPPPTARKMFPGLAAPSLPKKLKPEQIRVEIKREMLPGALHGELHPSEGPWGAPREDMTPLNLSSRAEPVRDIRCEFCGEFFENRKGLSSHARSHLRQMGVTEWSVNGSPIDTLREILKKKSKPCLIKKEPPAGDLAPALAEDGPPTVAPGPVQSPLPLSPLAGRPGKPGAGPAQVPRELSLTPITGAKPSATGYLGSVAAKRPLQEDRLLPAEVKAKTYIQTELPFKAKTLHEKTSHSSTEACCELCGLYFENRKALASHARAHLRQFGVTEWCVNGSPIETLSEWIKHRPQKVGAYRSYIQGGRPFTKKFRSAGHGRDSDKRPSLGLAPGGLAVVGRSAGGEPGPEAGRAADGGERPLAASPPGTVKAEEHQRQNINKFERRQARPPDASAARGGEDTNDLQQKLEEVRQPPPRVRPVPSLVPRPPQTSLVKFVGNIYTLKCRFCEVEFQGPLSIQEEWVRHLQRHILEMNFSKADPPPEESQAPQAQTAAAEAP
T1 sequence (Q96SW2 whole entry): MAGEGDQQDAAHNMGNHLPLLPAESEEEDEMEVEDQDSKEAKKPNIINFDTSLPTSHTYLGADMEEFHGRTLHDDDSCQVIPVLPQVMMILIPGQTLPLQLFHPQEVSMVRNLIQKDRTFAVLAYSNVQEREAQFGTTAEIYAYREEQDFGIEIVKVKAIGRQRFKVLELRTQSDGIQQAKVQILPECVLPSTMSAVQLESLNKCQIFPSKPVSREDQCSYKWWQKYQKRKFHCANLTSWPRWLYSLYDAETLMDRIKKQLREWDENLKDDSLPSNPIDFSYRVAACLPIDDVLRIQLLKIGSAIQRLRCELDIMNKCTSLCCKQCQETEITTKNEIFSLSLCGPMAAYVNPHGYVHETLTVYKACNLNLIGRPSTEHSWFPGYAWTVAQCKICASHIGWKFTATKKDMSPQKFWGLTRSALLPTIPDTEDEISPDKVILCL
T1 sequence (Q16531 whole entry partner): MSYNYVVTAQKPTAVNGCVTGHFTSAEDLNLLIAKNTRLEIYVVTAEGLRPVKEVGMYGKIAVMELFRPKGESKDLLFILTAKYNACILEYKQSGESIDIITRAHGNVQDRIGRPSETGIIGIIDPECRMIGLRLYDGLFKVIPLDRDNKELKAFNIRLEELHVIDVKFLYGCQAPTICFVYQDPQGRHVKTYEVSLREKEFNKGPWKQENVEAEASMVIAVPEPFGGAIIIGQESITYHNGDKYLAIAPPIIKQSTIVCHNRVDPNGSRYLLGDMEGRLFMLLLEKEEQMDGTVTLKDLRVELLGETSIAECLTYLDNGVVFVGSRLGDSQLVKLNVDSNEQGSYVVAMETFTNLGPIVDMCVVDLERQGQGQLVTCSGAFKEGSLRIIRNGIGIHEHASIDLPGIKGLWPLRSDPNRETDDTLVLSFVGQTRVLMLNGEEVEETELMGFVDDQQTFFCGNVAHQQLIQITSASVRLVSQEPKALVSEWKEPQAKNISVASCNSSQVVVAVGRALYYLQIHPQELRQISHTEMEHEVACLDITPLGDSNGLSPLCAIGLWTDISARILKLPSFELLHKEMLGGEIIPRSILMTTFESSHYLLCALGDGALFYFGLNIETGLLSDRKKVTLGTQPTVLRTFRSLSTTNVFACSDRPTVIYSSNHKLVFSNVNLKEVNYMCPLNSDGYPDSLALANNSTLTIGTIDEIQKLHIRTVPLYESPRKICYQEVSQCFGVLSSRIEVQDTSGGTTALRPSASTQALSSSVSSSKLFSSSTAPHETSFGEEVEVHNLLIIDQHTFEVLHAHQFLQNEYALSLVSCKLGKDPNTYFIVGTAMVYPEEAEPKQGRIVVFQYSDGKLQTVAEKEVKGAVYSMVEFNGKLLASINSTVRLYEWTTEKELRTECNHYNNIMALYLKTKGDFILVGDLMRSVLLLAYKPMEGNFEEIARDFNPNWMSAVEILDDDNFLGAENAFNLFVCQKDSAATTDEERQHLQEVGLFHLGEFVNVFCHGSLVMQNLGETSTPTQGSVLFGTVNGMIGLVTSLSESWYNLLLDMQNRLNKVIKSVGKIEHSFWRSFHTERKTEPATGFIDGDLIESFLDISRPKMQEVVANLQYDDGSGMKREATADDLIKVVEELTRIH

Compound | Dmax at 25 µM (100 minus Amax at 25 uM) [%] | remaining activity at 25 µM [1] [%] | DC50 [nM] | % degradation of WIZ (100-Amax) (100 minus Amax at 25 uM) [%] | WIZ Amax [1] [%]
C[C@@H]1CN(C(=O)N2CCCC2)CCN1Cc1ccc2onc(N3CCC(=O)NC3=O)c2c1 [Example 75, (R)-1-(5-((2-methyl-4-(pyrrolidine-1-carbonyl)piperazin-1-yl)methyl)benzo[d]isoxazol-3-yl)dihydropyrimidine-2,4(1H,3H)-dione] | 78 | 22 | 132 | – | –
CS(=O)(=O)N1CC2CCC1CN2Cc1ccc2onc(N3CCC(=O)NC3=O)c2c1 (single isomer, unassigned) [Example 125, 1-(5-((5-(methylsulfonyl)-2,5-diazabicyclo[2.2.2]octan-2-yl)methyl)benzo[d]isoxazol-3-yl)dihydropyrimidine-2,4(1H,3H)-dione] | 85 | 15 | 120 | – | –
CC(C)(C)OC(=O)N1C[C@H]2C[C@@H]1CN2Cc1ccc2onc(N3CCC(=O)NC3=O)c2c1 [Example 96, tert-butyl (1R,4R)-5-((3-(2,4-dioxotetrahydropyrimidin-1(2H)-yl)benzo[d]isoxazol-5-yl)methyl)-2,5-diazabicyclo[2.2.1]heptane-2-carboxylate] | 66 | 34 | 1090 | – | –
CCN1CCN(Cc2ccc3onc(N4CCC(=O)NC4=O)c3c2)CC1 [Example 62, 1-(5-((4-ethylpiperazin-1-yl)methyl)benzo[d]isoxazol-3-yl)dihydropyrimidine-2,4(1H,3H)-dione] | 89 | 11 | 24 | – | –

Other lines, results leading:

Dmax at 25 µM (100 minus Amax at 25 uM) [%] | remaining activity at 25 µM [1] [%] | DC50 [nM] | % degradation of WIZ (100-Amax) (100 minus Amax at 25 uM) [%] | WIZ Amax [1] [%] | Compound
– | – | 520 | 85 | 15 | CN1CC2CCC1CN2Cc1ccc2onc(N3CCC(=O)NC3=O)c2c1 (single isomer, unassigned) [Example 124, 1-(5-((5-methyl-2,5-diazabicyclo[2.2.2]octan-2-yl)methyl)benzo[d]isoxazol-3-yl)dihydropyrimidine-2,4(1H,3H)-dione]
75 | 25 | 229 | – | – | CC(=O)N1CCN(Cc2ccc3onc(N4CCC(=O)NC4=O)c3c2)[C@H](C)C1 [Example 64, (R)-1-(5-((4-acetyl-2-methylpiperazin-1-yl)methyl)benzo[d]isoxazol-3-yl)dihydropyrimidine-2,4(1H,3H)-dione]
80 | 20 | 37 | – | – | C[C@@H]1CN(C2CCOCC2)CCN1Cc1ccc2onc(N3CCC(=O)NC3=O)c2c1 [Example 78, (R)-1-(5-((2-methyl-4-(tetrahydro-2H-pyran-4-yl)piperazin-1-yl)methyl)benzo[d]isoxazol-3-yl)dihydropyrimidine-2,4(1H,3H)-dione]
86 | 14 | 109 | – | – | C[C@H]1CN(Cc2ccc3onc(N4CCC(=O)NC4=O)c3c2)[C@@H](C)CN1C [Example 106, 1-(5-(((2S,5S)-2,4,5-trimethylpiperazin-1-yl)methyl)benzo[d]isoxazol-3-yl)dihydropyrimidine-2,4(1H,3H)-dione]
92 | 8 | 33 | – | – | O=C1CCN(c2noc3ccc(CC4CCN(Cc5cccnc5)CC4)cc23)C(=O)N1 [Example 4, 1-(5-((1-(pyridin-3-ylmethyl)piperidin-4-yl)methyl)benzo[d]isoxazol-3-yl)dihydropyrimidine-2,4(1H,3H)-dione]
83 | 17 | 110 | – | – | CC(C)S(=O)(=O)N1CCN(Cc2ccc3onc(N4CCC(=O)NC4=O)c3c2)[C@H](C)C1 [Example 73, (R)-1-(5-((4-(isopropylsulfonyl)-2-methylpiperazin-1-yl)methyl)benzo[d]isoxazol-3-yl)dihydropyrimidine-2,4(1H,3H)-dione]
